Reference: patent publication US11312727B1, “Macrocyclic flu endonuclease inhibitors” (Janssen BioPharma, Inc., priority 2018, dated 2022)

Legend:
in vitro = conditions: human, CC50, uninfected A549 cells, CellTiter-Glo
[1] = system: Influenza strain A549 A/WSN/33 (H1N1); assay: microbe, parasite or virus in culture; format: cell-based; conditions: Influenza A virus, A549, 20 h, A549 cells, influenza A/WSN/33 (H1N1), 20 hours incubation; read-out: A549_A(H1N1) EC50

Compound | CC50 (in vitro) [nM] | EC50 [1] [nM]
O=C1c2c(O)c(=O)ccn2N2CN1CC/C=C\COc1ccc(F)c3c1[C@@H]2c1cccc(F)c1SC3 (single isomer, unassigned) [Compound 151A, (1*R,13*Z)-20,25-difluoro-7-hydroxy-16-oxa-23-thia-2,3,10-triazahexacyclo[15.12.1.12,10.03,8.021,30.024,29]hentriaconta-4,7,13,17,19,21(30),24(29),25,27-nonaene-6,9-dione] | > 100 | > 50
O=C1c2c(O)c(=O)ccn2N2CN1CC/C=C\COc1ccc(F)c3c1[C@H]2c1cccc(F)c1SC3 (single isomer, unassigned) [Compound 151B, (1*S,13*Z)-20,25-difluoro-7-hydroxy-16-oxa-23-thia-2,3,10-triazahexacyclo[15.12.1.12,10.03,8.021,30.024,29]hentriaconta-4,7,13,17,19,21(30),24(29),25,27-nonaene-6,9-dione] | > 100 | 4.4
O=C1c2c(O)c(=O)ccn2N2CN1[C@@H](C1CC1)/C=C/COc1c(ccc(F)c1F)[C@@H]2c1ccccc1 (single isomer, unassigned) [Compound 152AA, (9*S,18*S,*E)-9-cyclopropyl-3,4-difluoro-12-hydroxy-18-phenyl-6,9-dihydro-18H-10,17-methanobenzo[b]pyrido[1,2-f][1]oxa[5,6,9]triazacyclotridecine-11,13-dione] | > 100 | > 50
O=C1c2c(O)c(=O)ccn2N2CN1[C@H](C1CC1)/C=C/COc1c(ccc(F)c1F)[C@@H]2c1ccccc1 (single isomer, unassigned) [Compound 152AB, (9*R,18*S,*E)-9-cyclopropyl-3,4-difluoro-12-hydroxy-18-phenyl-6,9-dihydro-18H-10,17-methanobenzo[b]pyrido[1,2-f][1]oxa[5,6,9]triazacyclotridecine-11,13-dione] | > 100 | > 50
O=C1c2c(O)c(=O)ccn2N2CN1[C@@H](C1CC1)/C=C/COc1c(ccc(F)c1F)[C@H]2c1ccccc1 (single isomer, unassigned) [Compound 152BA, (9*S,18*R,*E)-9-cyclopropyl-3,4-difluoro-12-hydroxy-18-phenyl-6,9-dihydro-18H-10,17-methanobenzo[b]pyrido[1,2-f][1]oxa[5,6,9]triazacyclotridecine-11,13-dione] | > 200 | 1.3
O=C1c2c(O)c(=O)ccn2N2CN1[C@H](C1CC1)/C=C/COc1c(ccc(F)c1F)[C@H]2c1ccccc1 (single isomer, unassigned) [Compound 152BB, (9*R,18*R,*E)-9-cyclopropyl-3,4-difluoro-12-hydroxy-18-phenyl-6,9-dihydro-18H-10,17-methanobenzo[b]pyrido[1,2-f][1]oxa[5,6,9]triazacyclotridecine-11,13-dione] | > 200 | 1.8
COC[C@@H]1/C=C/COc2c(ccc(F)c2F)[C@H](c2ccccc2)N2CN1C(=O)c1c(O)c(=O)ccn12 (single isomer, unassigned) [Compound 153AA, (9*S,18*S,*E)-3,4-difluoro-12-hydroxy-9-(methoxymethyl)-18-phenyl-6,9-dihydro-18H-10,17-methanobenzo[b]pyrido[1,2-f][1]oxa[5,6,9]triazacyclotridecine-11,13-dione] | > 100 | > 50
COC[C@H]1/C=C/COc2c(ccc(F)c2F)[C@H](c2ccccc2)N2CN1C(=O)c1c(O)c(=O)ccn12 (single isomer, unassigned) [Compound 153AB, (9*R,18*S,*E)-3,4-difluoro-12-hydroxy-9-(methoxymethyl)-18-phenyl-6,9-dihydro-18H-10,17-methanobenzo[b]pyrido[1,2-f][1]oxa[5,6,9]triazacyclotridecine-11,13-dione] | > 100 | > 50
COC[C@@H]1/C=C/COc2c(ccc(F)c2F)[C@@H](c2ccccc2)N2CN1C(=O)c1c(O)c(=O)ccn12 (single isomer, unassigned) [Compound 153BA, (9*S,18*R,*E)-3,4-difluoro-12-hydroxy-9-(methoxymethyl)-18-phenyl-6,9-dihydro-18H-10,17-methanobenzo[b]pyrido[1,2-f][1]oxa[5,6,9]triazacyclotridecine-11,13-dione] | > 100 | 4.2
COC[C@H]1/C=C/COc2c(ccc(F)c2F)[C@@H](c2ccccc2)N2CN1C(=O)c1c(O)c(=O)ccn12 (single isomer, unassigned) [Compound 153BB, (9*R,18*R,*E)-3,4-difluoro-12-hydroxy-9-(methoxymethyl)-18-phenyl-6,9-dihydro-18H-10,17-methanobenzo[b]pyrido[1,2-f][1]oxa[5,6,9]triazacyclotridecine-11,13-dione] | > 100 | 2.6
CC[C@@H]1/C=C/COc2c(F)cccc2[C@@H](c2ccccn2)N2CN1C(=O)c1c(O)c(=O)ccn12 (single isomer, unassigned) [Compound 154AA, (9*R,18*S,*E)-9-ethyl-4-fluoro-12-hydroxy-18-(pyridin-2-yl)-6,9-dihydro-18H-10,17-methanobenzo[b]pyrido[1,2-f][1]oxa[5,6,9]triazacyclotridecine-11,13-dione] | > 100 | > 50
CC[C@H]1/C=C/COc2c(F)cccc2[C@@H](c2ccccn2)N2CN1C(=O)c1c(O)c(=O)ccn12 (single isomer, unassigned) [Compound 154AB, (9*S,18*S,*E)-9-ethyl-4-fluoro-12-hydroxy-18-(pyridin-2-yl)-6,9-dihydro-18H-10,17-methanobenzo[b]pyrido[1,2-f][1]oxa[5,6,9]triazacyclotridecine-11,13-dione] | > 100 | > 50
CC[C@@H]1/C=C/COc2c(F)cccc2[C@H](c2ccccn2)N2CN1C(=O)c1c(O)c(=O)ccn12 (single isomer, unassigned) [Compound 154BA, (9*R,18*R,*E)-9-ethyl-4-fluoro-12-hydroxy-18-(pyridin-2-yl)-6,9-dihydro-18H-10,17-methanobenzo[b]pyrido[1,2-f][1]oxa[5,6,9]triazacyclotridecine-11,13-dione] | > 100 | 6.8
CC[C@H]1/C=C/COc2c(F)cccc2[C@H](c2ccccn2)N2CN1C(=O)c1c(O)c(=O)ccn12 (single isomer, unassigned) [Compound 154BB, (9*S,18*R,*E)-9-ethyl-4-fluoro-12-hydroxy-18-(pyridin-2-yl)-6,9-dihydro-18H-10,17-methanobenzo[b]pyrido[1,2-f][1]oxa[5,6,9]triazacyclotridecine-11,13-dione] | > 100 | 3.4
Cc1ccccc1[C@@H]1c2ccc(F)c(F)c2OC/C=C\CN2CN1n1ccc(=O)c(O)c1C2=O (single isomer, unassigned) [Compound 155A, (18*R,*Z)-3,4-difluoro-12-hydroxy-18-(o-tolyl)-6,9-dihydro-18H-10,17-methanobenzo[b]pyrido[1,2-f][1]oxa[5,6,9]triazacyclotridecine-11,13-dione] | > 100 | 1.2
Cc1ccccc1C1c2ccc(F)c(F)c2OC/C=C\CN2CN1n1ccc(=O)c(O)c1C2=O (single isomer, unassigned) [Compound 155B, (18*S,*Z)-3,4-difluoro-12-hydroxy-18-(o-tolyl)-6,9-dihydro-18H-10,17-methanobenzo[b]pyrido[1,2-f][1]oxa[5,6,9]triazacyclotridecine-11,13-dione] | > 100 | > 50
O=C1c2c(O)c(=O)ccn2N2CN1C1(/C=C/COc3cccc4c3[C@H]2c2ccccc2SC4)CCCC1 (single isomer, unassigned) [Compound 156A, (17a′*S,*E)-12′-hydroxy-2′,17a′-dihydro-6′H-spiro[cyclopentane-1,9′-[3,4](epiprop[1]en[1]yl[3]ylidene)[10,17]methanobenzo[6,7]thiepino[4,5-c]pyrido[1,2-f][1]oxa[5,6,9]triazacyclotridecine]-11′,13′-dione] | > 100 | 0.51
CC(C)(C)[C@H]1/C=C/COc2cccc3c2[C@@H](c2ccccc2SC3)N2CN1C(=O)c1c(O)c(=O)ccn12 (single isomer, unassigned) [Compound 157A, (9*R,17a*S,*E)-9-(tert-butyl)-12-hydroxy-2,6,9,17a-tetrahydro-3,4-(epiprop[1]en[1]yl[3]ylidene)-10,17-methanobenzo[6,7]thiepino[4,5-c]pyrido[1,2-f][1]oxa[5,6,9]triazacyclotridecine-11,13-dione] | > 100 | 1.3
CC(C)(C)[C@@H]1/C=C/COc2cccc3c2[C@H](c2ccccc2SC3)N2CN1C(=O)c1c(O)c(=O)ccn12 (single isomer, unassigned) [Compound 157B, (9*S,17a*R,*E)-9-(tert-butyl)-12-hydroxy-2,6,9,17a-tetrahydro-3,4-(epiprop[1]en[1]yl[3]ylidene)-10,17-methanobenzo[6,7]thiepino[4,5-c]pyrido[1,2-f][1]oxa[5,6,9]triazacyclotridecine-11,13-dione] | > 100 | > 50
CC(C)c1ccccc1[C@H]1c2ccc(F)c(F)c2OC/C=C\CN2CN1n1ccc(=O)c(O)c1C2=O (single isomer, unassigned) [Compound 158A, (18*S,*Z)-3,4-difluoro-12-hydroxy-18-(2-isopropylphenyl)-6,9-dihydro-18H-10,17-methanobenzo[b]pyrido[1,2-f][1]oxa[5,6,9]triazacyclotridecine-11,13-dione] | > 100 | > 50
CC(C)c1ccccc1[C@@H]1c2ccc(F)c(F)c2OC/C=C\CN2CN1n1ccc(=O)c(O)c1C2=O (single isomer, unassigned) [Compound 158B, (18*R,*Z)-3,4-difluoro-12-hydroxy-18-(2-isopropylphenyl)-6,9-dihydro-18H-10,17-methanobenzo[b]pyrido[1,2-f][1]oxa[5,6,9]triazacyclotridecine-11,13-dione] | > 100 | > 50
